For 25 compounds, IC50 and remaining activity results are on record in patent US9382208B1, “Negative allosteric modulators of metabotropic glutamate receptor 2” (Vanderbilt University, priority 2015, dated 2016).

The target in this test is T1, rat mGlu2 (Rattus norvegicus, UniProt P31421).
T1 construct: expressed in transfected cells
Kind of test: mGlu2 Ca2+ flux assay. It counts as cell-based. To be noted: for IC50: Gα15 HEK293 cells stably expressing rat mGlu2, glutamate EC80 addition, read-out: rat mGlu2 IC50; for remaining activity at 30 µM: amplitude of response in the presence of 30 μM test compound as percentage of maximal response to glutamate, read-out: rat mGlu2 Glu max (%). As for the experimental part:
Gα15 HEK293 cells stably expressing rat mGlu2 were plated in black-walled, clear-bottomed, poly-D-lysine coated 384-well plates in 20 μL of assay medium (DMEM containing 10% dialyzed FBS, 20 mM HEPES, and 1 mM sodium pyruvate) at a density of 12K cells/well. The cells were grown overnight at 37° C. in the presence of 5% CO2. The next day, medium was removed and the cells incubated with 20 μL of 2.3 μM Fluo-4, AM prepared as a 2.3 mM stock in DMSO and mixed in a 1:1 ratio with 10% (w/v) pluronic acid F-127 and diluted in assay buffer (Hank's balanced salt solution, 20 mM HEPES, and 2.5 mM probenecid) for 45 minutes at 37° C. Dye was removed, 20 μL of assay buffer was added, and the plate was incubated for 5 minutes at room temperature.
Ca^2+ flux was measured using the Functional Drug Screening System (FDSS7000, Hamamatsu, Japan). After establishment of a fluorescence baseline for about 3 seconds, the compounds of the present invention were added to the cells, and the response in cells was measured. 2.3 minutes later an EC20 concentration of the mGlu2 receptor agonist glutamate was added to the cells, and the response of the cells was measured for 1.9 minutes; an EC80 concentration of agonist was added and readings taken for an additional 1.7 minutes. All test compounds were dissolved and diluted to a concentration of 10 mM in 100% DMSO. Compounds were then serially diluted 1:3 in DMSO into 10 point concentration response curves, transferred to daughter plates, and further diluted into assay buffer to a 2× stock. Calcium fluorescence measures were recorded as fold over basal fluorescence; raw data was then normalized to the maximal response to glutamate. Antagonism of the agonist response of the mGlu2 receptor in the present invention was observed as a decrease in response to nearly maximal concentrations of glutamate in the presence of compound compared to the response to glutamate in the absence of compound.
The raw data file containing all time points was used as the data source in the analysis template. This was saved by the FDSS as a tab-delimited text file. Data were normalized using a static ratio function (F/F0) for each measurement of the total 360 values per well divided by each well's initial value. Data were then reduced to peak amplitudes (Max−Initial Min) using a time range that starts approximately 3 seconds prior to the glutamate EC80 addition and continues for approximately 90 seconds. This is sufficient time to capture the peak amplitude of the cellular calcium response. Individual amplitudes were expressed as % ECMax by multiplying each amplitude by 100 and then dividing the product by the mean of the amplitudes derived from the glutamate ECMax-treated wells. IC50 values for test compounds were generated by fitting the normalized values versus the log of the test compound concentration (in mol/L) using a 4 parameter logistic equation where none of the parameters were fixed. Each of the three values collected at each concentration of test compound were weighted evenly.
For NAMs, potency (IC50) and maximum response (% Glu Max), i.e. the amplitude of response in the presence of 30 μM test compound as a percentage of the maximal response to glutamate, are reported. […] Compounds with no measurable activity are designated as “>30,000 nM” since the top concentration of compound tested in the assay is 30 μM.
In general terms: A change in cytosolic calcium serves as a functional read-out for many receptors and channels.

T1 sequence (P31421 19-872): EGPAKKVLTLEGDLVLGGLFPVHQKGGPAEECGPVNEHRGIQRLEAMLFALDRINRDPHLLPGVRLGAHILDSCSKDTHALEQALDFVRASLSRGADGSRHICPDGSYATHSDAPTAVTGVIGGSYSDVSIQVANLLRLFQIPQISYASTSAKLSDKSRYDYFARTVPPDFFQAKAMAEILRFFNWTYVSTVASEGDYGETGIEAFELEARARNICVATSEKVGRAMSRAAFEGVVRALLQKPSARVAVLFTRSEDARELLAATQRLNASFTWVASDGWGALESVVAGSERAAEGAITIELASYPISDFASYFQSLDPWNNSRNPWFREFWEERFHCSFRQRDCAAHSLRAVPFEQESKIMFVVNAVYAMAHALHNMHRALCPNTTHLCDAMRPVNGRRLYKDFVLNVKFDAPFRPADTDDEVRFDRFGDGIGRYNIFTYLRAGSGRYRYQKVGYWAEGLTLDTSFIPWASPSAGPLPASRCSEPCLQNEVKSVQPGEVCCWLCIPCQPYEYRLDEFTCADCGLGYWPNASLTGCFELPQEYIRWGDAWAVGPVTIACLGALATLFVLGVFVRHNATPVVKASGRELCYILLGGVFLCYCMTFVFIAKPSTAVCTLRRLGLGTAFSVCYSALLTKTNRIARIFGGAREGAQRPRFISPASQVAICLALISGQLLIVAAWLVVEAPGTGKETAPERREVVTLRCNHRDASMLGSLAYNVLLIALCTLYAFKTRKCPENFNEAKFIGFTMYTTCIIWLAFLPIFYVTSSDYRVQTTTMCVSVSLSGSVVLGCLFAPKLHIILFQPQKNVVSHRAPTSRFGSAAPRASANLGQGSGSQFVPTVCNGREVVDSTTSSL

One may read the IC50 as the concentration that inhibits the measured activity by half. As to `Cc1ncc(CCc2ccc3c(c2)c(=O)c(C(N)=O)cn3-c2ccc(F)cc2)cn1` [Compound 1, 1-(4-Fluorophenyl)-6-(2-(2-methylpyrimidin-5-yl)ethyl)-4-oxo-1,4-dihydroquinoline-3-carboxamide], the IC50 worked out at 227 ± 55 nM and the remaining activity at 30 µM was 1.52 ± 0.26%.
As to `NC(=O)c1cn(-c2ccc(F)cc2)c2ccc(CN3CCSCC3)cc2c1=O` [Compound 2, 1-(4-fluorophenyl)-4-oxo-6-(thiomorpholinomethyl)-1,4-dihydroquinoline-3-carboxamide], the IC50 came to 440 ± 97 nM and the remaining activity at 30 µM worked out at 1.52 ± 0.63%.
Take `NC(=O)c1cn(-c2ccc(F)cc2)c2ccc(CN3CCOCC3)cc2c1=O` [Compound 3, 1-(4-fluorophenyl)-6-(morpholinomethyl)-4-oxo-1,4-dihydroquinoline-3-carboxamide]: the IC50 is 3910 nM and the remaining activity at 30 µM is -0.78%.
Regarding `NC(=O)c1cn(-c2ccc(F)cc2)c2ccc(CN3CCCCC3)cc2c1=O` [Compound 4, 1-(4-fluorophenyl)-4-oxo-6-(piperidin-1-ylmethyl)-1,4-dihydroquinoline-3-carboxamide], the IC50 was more than 10000 nM and the remaining activity at 30 µM turned out to be 53.8%.
The like results for `NC(=O)c1cn(-c2ccc(F)cc2)c2ccc(CCc3ccccc3)cc2c1=O` [Compound 5, 1-(4-fluorophenyl)-4-oxo-6-phenethyl-1,4-dihydroquinoline-3-carboxamide] were, in that order, not below 10000 nM and 4.65%.
The like results for `Cc1ccc(CCc2ccc3c(c2)c(=O)c(C(N)=O)cn3-c2ccc(F)cc2)cc1` [Compound 6, 1-(4-fluorophenyl)-6-(4-methylphenethyl)-4-oxo-1,4-dihydroquinoline-3-carboxamide] were, in that order, more than 10000 nM and 68.5%.
As for `Cc1cccc(CCc2ccc3c(c2)c(=O)c(C(N)=O)cn3-c2ccc(F)cc2)c1` [Compound 7, 1-(4-fluorophenyl)-6-(3-methylphenethyl)-4-oxo-1,4-dihydroquinoline-3-carboxamide], the IC50 is more than 10000 nM and the remaining activity at 30 µM came out at 42.1%.
For the compound `Cc1ccccc1CCc1ccc2c(c1)c(=O)c(C(N)=O)cn2-c1ccc(F)cc1` [Compound 8, 1-(4-fluorophenyl)-6-(2-methylphenethyl)-4-oxo-1,4-dihydroquinoline-3-carboxamide], the IC50 was more than 10000 nM and the remaining activity at 30 µM stood at 18.7%.
Take `NC(=O)c1cn(-c2ccc(F)cc2)c2ccc(CCc3ccncc3)cc2c1=O` [Compound 9, 1-(4-fluorophenyl)-4-oxo-6-(2-(pyridin-4-yl)ethyl)-1,4-dihydroquinoline-3-carboxamide]: the IC50 turned out to be 492 ± 97 nM and the remaining activity at 30 µM came to 1.88 ± 0.38%.
For `NC(=O)c1cn(-c2ccc(F)cc2)c2ccc(CCc3cccnc3)cc2c1=O` [Compound 10, 1-(4-fluorophenyl)-4-oxo-6-(2-(pyridin-3-yl)ethyl)-1,4-dihydroquinoline-3-carboxamide], the IC50 is 482 ± 87 nM and the remaining activity at 30 µM was found to be 1.9 ± 0.11%.
Consider `NC(=O)c1cn(-c2ccc(F)cc2)c2ccc(CCc3ccccn3)cc2c1=O` [Compound 11, 1-(4-fluorophenyl)-4-oxo-6-(2-(pyridin-2-yl)ethyl)-1,4-dihydroquinoline-3-carboxamide], for which the IC50 turned out to be 2590 nM and the remaining activity at 30 µM was determined as 0.92%.
`CN(Cc1cccnc1)c1ccc2c(c1)c(=O)c(C(N)=O)cn2-c1ccc(F)cc1` [Compound 12, 1-(4-fluorophenyl)-6-(methyl(pyridin-3-ylmethyl)amino)-4-oxo-1,4-dihydroquinoline-3-carboxamide]: the IC50 is 202 ± 14 nM and the remaining activity at 30 µM is 2.39 ± 0.13%.
As to `COc1ccc(-n2cc(C(N)=O)c(=O)c3cc(CCc4cnc(C)nc4)ccc32)c(F)c1` [Compound 13, 1-(2-fluoro-4-methoxyphenyl)-6-(2-(2-methylpyrimidin-5-yl)ethyl)-4-oxo-1,4-dihydroquinoline-3-carboxamide], the IC50 turned out to be 311 nM and the remaining activity at 30 µM amounted to 1.14%.
With `COc1ccc(-n2cc(C(N)=O)c(=O)c3cc(CCc4cnc(C)nc4)ccc32)cc1F` [Compound 14, 1-(3-fluoro-4-methoxyphenyl)-6-(2-(2-methylpyrimidin-5-yl)ethyl)-4-oxo-1,4-dihydroquinoline-3-carboxamide], the IC50 was 252 nM and the remaining activity at 30 µM is 1.15%.
As for `COc1ccc(-n2cc(C(N)=O)c(=O)c3cc(CCc4cnc(C)nc4)ccc32)cc1` [Compound 15, 1-(4-methoxyphenyl)-6-(2-(2-methylpyrimidin-5-yl)ethyl)-4-oxo-1,4-dihydroquinoline-3-carboxamide], the IC50 turned out to be 139 nM and the remaining activity at 30 µM worked out at 1.61%.
`NC(=O)c1cn(-c2ccc(F)cc2)c2ccc(Nc3cccnc3)cc2c1=O` [Compound 16, 1-(4-fluorophenyl)-4-oxo-6-(pyridin-3-ylamino)-1,4-dihydroquinoline-3-carboxamide]: the IC50 worked out at 433 nM and the remaining activity at 30 µM came out at 1.77%.
Take `NC(=O)c1cn(-c2ccc(F)cc2)c2ccc(NCc3cccnc3)cc2c1=O` [Compound 17, 1-(4-fluorophenyl)-4-oxo-6-((pyridin-3-ylmethyl)amino)-1,4-dihydroquinoline-3-carboxamide]: the IC50 is 421 nM and the remaining activity at 30 µM stood at 1.05%.
Regarding `CN(c1ccncc1)c1ccc2c(c1)c(=O)c(C(N)=O)cn2-c1ccc(F)cc1` [Compound 18, 1-(4-fluorophenyl)-6-(methyl(pyridin-4-yl)amino)-4-oxo-1,4-dihydroquinoline-3-carboxamide], the IC50 was determined as 1150 nM and the remaining activity at 30 µM was determined as 1.73%.
As to `CN(Cc1ccncc1)c1ccc2c(c1)c(=O)c(C(N)=O)cn2-c1ccc(F)cc1` [Compound 19, 1-(4-fluorophenyl)-6-(methyl(pyridin-4-ylmethyl)amino)-4-oxo-1,4-dihydroquinoline-3-carboxamide], the IC50 stood at 224 nM and the remaining activity at 30 µM was found to be 1.02%.
The like results for `CN(c1cccnc1)c1ccc2c(c1)c(=O)c(C(N)=O)cn2-c1ccc(F)cc1` [Compound 20, 1-(4-fluorophenyl)-6-(methyl(pyridin-3-yl)amino)-4-oxo-1,4-dihydroquinoline-3-carboxamide] were, in that order, 155 nM and 1.33%.
Regarding `Cc1ccc(COc2ccc3c(c2)c(=O)c(C(N)=O)cn3-c2ccc(F)cc2)cn1` [Compound 21, 1-(4-fluorophenyl)-6-((6-methylpyridin-3-yl)methoxy)-4-oxo-1,4-dihydroquinoline-3-carboxamide], the IC50 worked out at 541 ± 116 nM and the remaining activity at 30 µM came out at 1.55 ± 0.39%.
On to `Cc1cc(-n2cc(C(N)=O)c(=O)c3cc(CCc4cnc(C)nc4)ccc32)sn1` [Compound 22, 1-(3-methylisothiazol-5-yl)-6-(2-(2-methylpyrimidin-5-yl)ethyl)-4-oxo-1,4-dihydroquinoline-3-carboxamide], for which the IC50 was determined as 419 ± 46 nM and the remaining activity at 30 µM amounted to 1.2 ± 0.5%.
Consider `CC(Oc1ccc2c(c1)c(=O)c(C(N)=O)cn2-c1ccc(F)cc1)c1ccncc1` (centres unmarked) [Compound 23, 1-(4-fluorophenyl)-4-oxo-6-(1-(pyridin-4-yl)ethoxy)-1,4-dihydroquinoline-3-carboxamide], for which the IC50 stood at 460 ± 62 nM and the remaining activity at 30 µM is 1.07 ± 0.13%.
The like results for `Cc1cc(COc2ccc3c(c2)c(=O)c(C(N)=O)cn3-c2ccc(F)cc2)ccn1` [Compound 24, 1-(4-fluorophenyl)-6-((2-methylpyridin-4-yl)methoxy)-4-oxo-1,4-dihydroquinoline-3-carboxamide] were, in that order, 422 ± 94 nM and 1.09 ± 0.16%.
With `NC(=O)c1cn(-c2ccc(F)cc2)c2ccc(OCc3ccncc3)cc2c1=O` [Compound 25, 1-(4-fluorophenyl)-4-oxo-6-(pyridin-4-ylmethoxy)-1,4-dihydroquinoline-3-carboxamide], the IC50 turned out to be 1230 nM and the remaining activity at 30 µM amounted to 0.97%.
